Test results reported in ChEMBL document CHEMBL5500364, “Design, synthesis, and biological evaluation of some 2-(3-oxo-5,6-diphenyl-1,2,4-triazin-2(3H)-yl)-N-phenylacetamide hybrids as MTDLs for Alzheimer's disease therapy” (Eur J Med Chem, 2024).
Calls of active or inactive are those of the source. No cut-off for these calls is given here.

Key:
Rattus norvegicus [1] = test: (§1) Reversal of amyloid beta (1 to 42 residues) induced cognitive impairment in Wistar rat assessed as decrease in alpha-synuclein protein level at 10 mg/kg, po pretreated with amyloid beta for 7 days followed by compound administration for 9 days and measured after 5 days by Western blot analysis; type: functional, organism-based; conditions: time 14.0 day
[2] = Permeability of compound in PBS at pH 7.4 incubated for 18 hrs by PAMPA-BBB assay
Rattus norvegicus [3] = test: (§2) Reversal of amyloid beta (1 to 42 residues) induced cognitive impairment in Wistar rat assessed as reduction in neural dispersion at DG region in hippocampus at 2.5 to 10 mg/kg, po pretreated with amyloid beta for 7 days followed by compound administration for 9 days and measured after 5 days by Nissl's staining based analysis; type: functional, organism-based; conditions: dose 2.5-10 mg/kg, time 14.0 day
Drosophila [4] = test: Neuroprotective activity in ey-GAL4>UAS-amyloid beta (1 to 42) induced cellular toxicity in Oregon R-positive Drosophila model assessed as rescue in eye phenotype at 10 uM by Stereo zoom microscopic imaging analysis relative to control; type: functional
Rattus norvegicus [5] = test: Reversal of amyloid beta (1 to 42 residues) induced cognitive impairment in Wistar rat assessed as reduction in escape latency time at 10 mg/kg, po pretreated with amyloid beta for 7 days followed by compound administration for 9 days and measured after 1 days by Morris water maze test; type: functional, organism-based; conditions: time 10.0 day
Rattus norvegicus [6] = test: Reversal of amyloid beta (1 to 42 residues) induced cognitive impairment in Wistar rat assessed as increase in platform crossings at 10 mg/kg, po pretreated with amyloid beta for 7 days followed by compound administration for 9 days and measured after 1 days by Morris water maze test; type: functional, organism-based; conditions: time 10.0 day
Rattus norvegicus [7] = test: as §1, with “BACE-1” for “alpha-synuclein protein”, “level in CA3 region of hippocampus” for “level”, “immuno histochemical” for “Western blot”; type: functional, organism-based; conditions: time 14.0 day
Drosophila [8] = test: Neuroprotective activity against ey-GAL4>UAS-amyloid beta (1 to 42) induced cellular toxicity in Oregon R-positive Drosophila model assessed as rescue of ommatidial patterns in eye at 10 to 20 uM by scanning electron microscopic imaging analysis; type: functional, organism-based; conditions: dose 10-20 µM
[9] = molecular target: Amyloid-beta precursor protein (Homo sapiens) (UniProt P05067); test: Inhibition of amyloid beta (1 to 42) (unknown origin) aggregation assessed as reduction in size of amyloid-beta aggregates measured within 48 hrs by SEM imaging analysis
[10] = MRT in male Wistar rat at 10 mg/kg, po measured after 72 hrs by HPLC analysis; type: ADME, organism-based; conditions: in vivo
Rattus norvegicus [11] = test: Reversal of amyloid beta (1 to 42 residues) induced cognitive impairment in Wistar rat assessed as decrease in APP protein level at 10 mg/kg, po pretreated with amyloid beta for 7 days followed by compound administration for 9 days and measured after 5 days by Western blot analysis; type: functional, organism-based; conditions: time 14.0 day
Rattus norvegicus [12] = test: as §2, with “appearance of pyknotic neuron bodies” for “neural dispersion at DG region”; type: functional, organism-based; conditions: dose 2.5-10 mg/kg, time 14.0 day
Rattus norvegicus [13] = test: Antialzheimer activity against scopolamine-induced amnesia in male Wistar rat model assessed as increase in total arm enteries at 2.5 to 10 mg/kg, po preadministered with compound for 30 mins starting from 7 th day trail followed by scopolamine administration and measured after 5 mins by Y maze test; type: functional, organism-based; conditions: dose 2.5-10 mg/kg, time 35.0 min
Rattus norvegicus [14] = test: as §1, with “amyloid” for “alpha-synuclein protein”, “level in CA3 region of hippocampus” for “level”, “immuno histochemical” for “Western blot”; type: functional, organism-based; conditions: time 14.0 day
[15] = Acute toxicity in Wistar rat assessed as effect on DCT shape at 500 to 1000 mg/kg, po administered for 14 days by histopathological analysis; type: organism-based; conditions: in vivo, 336 h, dose 500-1000 mg/kg, time 14 day
Hippocampus [16] = test: Reversal of scopolamine-induced oxidative stress in male Wistar rat brain hippocampus assessed as decrease in MDA level at 2.5 to 10 mg/kg, po preadministered with compound for 30 mins starting from 7 th day trail followed by scopolamine administration and measured after 5 mins by TBARS assay; type: functional, organism-based; conditions: dose 2.5-10 mg/kg, time 35.0 min
Rattus norvegicus [17] = test: as §1, with “BACE-1” for “alpha-synuclein protein”, “level in DG region of hippocampus” for “level”, “immuno histochemical” for “Western blot”; type: functional, organism-based; conditions: time 14.0 day
[18] = molecular target: Amyloid-beta precursor protein (Homo sapiens) (UniProt P05067); test: Inhibition of amyloid beta (1 to 42) (unknown origin) aggregation assessed as reduction in amyloid-beta aggregates at 50 uM incubated for 48 hrs by TEM analysis
Drosophila [19] = test: Neuroprotective activity in ey-GAL4>UAS-amyloid beta (1 to 42) induced cellular toxicity in Oregon R-positive Drosophila model assessed as rescue in eye phenotype at 20 uM by Stereo zoom microscopic imaging analysis relative to control; type: functional
[20] = Tmax in male Wistar rat at 10 mg/kg, po measured after 72 hrs by HPLC analysis; type: ADME, organism-based; conditions: in vivo
[21] = Acute toxicity in Wistar rat assessed as effect on lung appearance at 500 to 1000 mg/kg, po administered for 14 days by histopathological analysis; type: organism-based; conditions: in vivo, 336 h, dose 500-1000 mg/kg, time 14 day
Rattus norvegicus [22] = test: as §1, with “amyloid” for “alpha-synuclein protein”, “level in CA1 region of hippocampus” for “level”, “immuno histochemical” for “Western blot”; type: functional, organism-based; conditions: time 14.0 day
[23] = molecular target: Amyloid-beta precursor protein (Homo sapiens) (UniProt P05067); test: Inhibition of amyloid beta (1 to 42) (unknown origin) aggregation assessed as maximum peak height of aggregates incubated for 48 hrs by AFM analysis
Hippocampus [24] = test: Reversal of scopolamine-induced oxidative stress in male Wistar rat brain hippocampus assessed as increase in SOD level at 2.5 to 10 mg/kg, po preadministered with compound for 30 mins starting from 7 th day trail followed by scopolamine administration and measured after 5 mins […]; type: functional, organism-based; conditions: dose 2.5-10 mg/kg, time 35.0 min
Rattus norvegicus [25] = test: Reversal of amyloid beta (1 to 42 residues) induced cognitive impairment in Wistar rat assessed as decrease in Tau protein level at 10 mg/kg, po pretreated with amyloid beta for 7 days followed by compound administration for 9 days and measured after 5 days by Western blot analysis; type: functional, organism-based; conditions: time 14.0 day
Rattus norvegicus [26] = test: as §1, with “amyloid” for “alpha-synuclein protein”, “level in DG region of hippocampus” for “level”, “immuno histochemical” for “Western blot”; type: functional, organism-based; conditions: time 14.0 day
[27] = Toxicity in wildtype Oregon R-positive Drosophila assessed as eclosion at 10 uM pretreated for 5 days and measured for 15 days relative to control; conditions: 480 h, time 20 day
[28] = Total AUC in male Wistar rat at 10 mg/kg, po measured after 72 hrs by HPLC analysis; type: ADME, organism-based; conditions: in vivo
[29] = Acute toxicity in Wistar rat assessed as toxicity signs at 500 to 1000 mg/kg, po administered for 14 days; type: organism-based; conditions: in vivo, 336 h, dose 500-1000 mg/kg, time 14 day
Rattus norvegicus [30] = test: Upregulation of ACh level in scopolamine-induced male Wistar rat brain hippocampus preadministered with compound orally for 30 mins starting from 7 th day trail followed by scopolamine administration and measured after 5 mins by GENELISA; type: functional, tissue-based; conditions: dose 2.5-10 mg/kg, route po, time 35.0 min
[31] = Toxicity in wildtype Oregon R-positive Drosophila assessed as eclosion at 50 uM pretreated for 5 days and measured for 15 days relative to control; conditions: 480 h, time 20 day
[32] = Toxicity in wildtype Oregon R-positive Drosophila assessed as cell viability in gut at 50 uM by MTT assay relative to control; type: tissue-based; conditions: read-out: Activity

Sequence of Amyloid-beta precursor protein (Homo sapiens) (P05067 whole entry, the tested form may be a part): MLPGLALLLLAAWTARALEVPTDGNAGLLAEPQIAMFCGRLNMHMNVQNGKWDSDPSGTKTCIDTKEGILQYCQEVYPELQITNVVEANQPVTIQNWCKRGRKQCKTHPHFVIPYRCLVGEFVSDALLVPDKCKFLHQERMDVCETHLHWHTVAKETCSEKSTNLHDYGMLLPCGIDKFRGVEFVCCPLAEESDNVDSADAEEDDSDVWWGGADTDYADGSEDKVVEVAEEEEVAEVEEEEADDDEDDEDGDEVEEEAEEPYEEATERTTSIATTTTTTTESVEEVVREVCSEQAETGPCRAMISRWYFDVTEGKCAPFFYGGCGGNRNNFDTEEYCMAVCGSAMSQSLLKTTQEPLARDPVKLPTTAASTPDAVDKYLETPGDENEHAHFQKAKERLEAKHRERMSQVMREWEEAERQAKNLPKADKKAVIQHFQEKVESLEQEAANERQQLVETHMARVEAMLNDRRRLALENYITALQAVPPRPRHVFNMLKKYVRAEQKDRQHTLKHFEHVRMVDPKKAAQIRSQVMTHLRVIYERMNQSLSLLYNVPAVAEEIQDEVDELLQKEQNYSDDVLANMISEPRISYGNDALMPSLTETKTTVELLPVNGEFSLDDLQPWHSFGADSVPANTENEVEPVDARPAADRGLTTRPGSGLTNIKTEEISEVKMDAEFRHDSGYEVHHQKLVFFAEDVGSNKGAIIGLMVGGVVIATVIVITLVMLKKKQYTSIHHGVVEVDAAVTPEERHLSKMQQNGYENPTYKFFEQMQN

COc1cc(NC(=O)Cn2nc(-c3ccccc3)c(-c3ccccc3)nc2=O)cc(OC)c1
Activity (Rattus norvegicus [1]): Active
Papp at 18 h [2]: 5.64 ×10⁻⁶ cm/s
Activity (Rattus norvegicus [3]): Active
Activity (Drosophila [4]): 21%
Activity (Rattus norvegicus [5]): inactive
Activity (Rattus norvegicus [6]): inactive
Activity (Rattus norvegicus [7]): Active
Activity (Drosophila [8]): Active
inhibition [9]: Active
MRT [10]: 32 h
Activity (Rattus norvegicus [11]): Active
Activity (Rattus norvegicus [12]): Active
Activity (Rattus norvegicus [13]): Active
Activity (Rattus norvegicus [14]): Active
Activity [15]: Non-Toxic
Activity (Hippocampus [16]): Active
Activity (Rattus norvegicus [17]): Active
inhibition [18]: Active
Activity (Drosophila [19]): 57%
Tmax [20]: 9 h
Activity [21]: Non-Toxic
Activity (Rattus norvegicus [22]): Active
Activity [23]: 253 nm
Activity (Hippocampus [24]): Active
Activity (Rattus norvegicus [25]): Active
Activity (Rattus norvegicus [26]): Active
Activity [27]: 85%
AUC at 72 h [28]: 1740 ng·h/mL
Activity [29]: Non-Toxic
Activity (Rattus norvegicus [30]): Dose-Dependent Effect
Activity [31]: 25%
viability at 50 µM [32]: 38%
